Active and inactive are the calls of the source.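 The calls were made as follows: active = fluorescence span above 25 thousand equivalent fluorochrome units, or a 33 microM versus DMSO difference score above 25; inactive = the rest.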
The compounds below were run on S. cerevisiae s288c autofluorescence, flow cytometry 520 nm, 3 h (assay: compound green fluorescence in S. cerevisiae cells – flow cytometry, strain s288c, KU SAR set 2, multiplex, artefact control for yeast TOR pathway modulator project, dose response (AID 504463)). Details: at 33.3 µM; active compounds read high.

Which fluorescence change (kMESF span) does the source give for `CNc1nc(N)cc(Nc2cccc(Cl)c2)n1` here?
Its fluorescence change (kMESF span) is 0.06 (inactive).

With `CNc1nc(N)c([N+](=O)[O-])c(Nc2cccc(Oc3ccccc3)c2)n1` as the compound, how does the fluorescence change (kMESF span) read?
The fluorescence change (kMESF span) was 0.07 (inactive).

For `CNc1nc(N)cc(Nc2ccccc2F)n1`, which fluorescence change (kMESF span) is on record?
The fluorescence change (kMESF span) was 0 (inactive).

How did the fluorescence change (kMESF span) turn out when `CCNc1nc(N)c([N+](=O)[O-])c(Nc2cccc(Cl)c2)n1` was run?
The fluorescence change (kMESF span) was 0.49 (inactive).

How did the fluorescence change (kMESF span) turn out when `O=[N+]([O-])c1c(NC2CCCCC2)nc(NCc2ccccc2)nc1N1CCOCC1` was run?
The fluorescence change (kMESF span) was 0 (inactive).

`COc1cccc(-c2cc(Nc3cc(C)[nH]n3)nc(NCc3ccccc3)n2)c1` was tested. Which fluorescence change (kMESF span) did it give?
Its fluorescence change (kMESF span) is 0.13 (inactive).

`CNc1nc(N)c([N+](=O)[O-])c(Nc2cccc(Br)c2)n1` was tested. Which fluorescence change (kMESF span) did it give?
The fluorescence change (kMESF span) was 0.07 (inactive).

For `CNc1nc(NC2CCCCC2)c([N+](=O)[O-])c(N2CCOCC2)n1`, which fluorescence change (kMESF span) is on record?
The fluorescence change (kMESF span) was 0.14 (inactive).

With `CNc1nc(N)c([N+](=O)[O-])c(Nc2cccc(OC)c2)n1` as the compound, how does the fluorescence change (kMESF span) read?
Its fluorescence change (kMESF span) is 0.14 (inactive).

Which fluorescence change (kMESF span) does the source give for `COC(=O)c1cccc(-c2cc(Nc3cc(C)[nH]n3)nc(NCc3ccccc3)n2)c1` here?
Its fluorescence change (kMESF span) is 0.06 (inactive).

How did the fluorescence change (kMESF span) turn out when `Cc1cc(Nc2cc(Nc3ccccc3)nc(NCc3ccccc3)n2)n[nH]1` was run?
The fluorescence change (kMESF span) was 0.07 (inactive).

How did the fluorescence change (kMESF span) turn out when `CNc1nc(N)cc(Oc2cccc(Cl)c2)n1` was run?
Its fluorescence change (kMESF span) is 0.06 (inactive).

Which fluorescence change (kMESF span) does the source give for `CNc1nc(N)c(C(=O)c2ccc(C)c(C)c2)c(Nc2cccc(Cl)c2)n1` here?
Its fluorescence change (kMESF span) is 0.07 (inactive).

Which fluorescence change (kMESF span) does the source give for `CNc1nc(N)c([N+](=O)[O-])c(Nc2ccccc2Br)n1` here?
Its fluorescence change (kMESF span) is 0.07 (inactive).

`CCOC(=O)c1c(N)nc(NC)nc1Nc1cccc(F)c1` was tested. Which fluorescence change (kMESF span) did it give?
The fluorescence change (kMESF span) was 0.13 (inactive).

With `CNc1nc(N)c([N+](=O)[O-])c(Nc2ccccc2F)n1` as the compound, how does the fluorescence change (kMESF span) read?
The fluorescence change (kMESF span) was 0.07 (inactive).

Which fluorescence change (kMESF span) does the source give for `Cc1cc(Nc2cc(-c3ccccc3)nc(NCc3ccccc3)n2)n[nH]1` here?
Its fluorescence change (kMESF span) is 0.06 (inactive).

Which fluorescence change (kMESF span) does the source give for `COc1ccccc1-c1cc(Nc2cc(C)[nH]n2)nc(NCc2ccccc2)n1` here?
Its fluorescence change (kMESF span) is 0.06 (inactive).

With `CCNc1nc(NC2CCCCC2)c([N+](=O)[O-])c(N2CCOCC2)n1` as the compound, how does the fluorescence change (kMESF span) read?
The fluorescence change (kMESF span) was 0 (inactive).

For `CNc1nc(NC)c([N+](=O)[O-])c(Nc2cccc(Cl)c2)n1`, which fluorescence change (kMESF span) is on record?
Its fluorescence change (kMESF span) is 0.07 (inactive).

— PubChem BioAssay AID504463 (NMMLSC, 2011)
